Assay results as given in patent publication US20040038933A1, “Pharmaceutical compositions, dose and method for treating malaria” (priority 2000, published 2004).

Assays:
[1] = tested on: P. falcipanini; test: Recovery from fever in patients with severe malaria, combined administration of CRDS and artesunate; assay type: in vivo; details: CRDS 4 mg/kg i.v. infusion every 8 hours for 4 days, artesunate i.v. 120 mg then 60 mg every 12 hours up to 600 mg, 22 patients per group, FIG. 1
Method: Sodium curdlan sulfate (hereinafter referred to as “CRDS”; molecular weight 80,000; sulfur content 14.5%) was used as a sulfated polysaccharide and artesunate (dihydroartemisinin hemisuccinate, see formula I, J. Med. Chem., 30, 2147 (1987)) was used as an artemisinin compound.
(§1) CRDS was used as a solution containing 100 mg of CRDS, 50 mg of mannitol, 18 mg of dibasic sodium phosphate and phosphate buffer (pH 6.5) per vial.
(§2) CRDS was intravenously administered (infusion) at 4 mg/kg every 8 hours in a total daily dose of 12 mg/kg for 4 days.
(§3) Physiological saline was used as a placebo and administered according to the same schedule as for CRDS.
Artesunate (60 mg/vial) was intravenously administered to both CRDS and placebo groups at a dose of initially 120 mg, and then 60 mg every 12 hours up to a total dose of 600 mg (according to the current standard therapy in the Bangkok Hospital for Tropical Diseases). If possible, tablets containing 50 mg of artesunate were orally administered.
Fifty patients were randomly divided into a CRDS group and a placebo group. The patients were males and females at the ages of 12-65 in whom P. falcipanini was found. The patients had symptoms of severe malaria (with hypoglycemia corrected) and excluded those having symptoms of cerebral malaria. […]
The time required for each patient to recover from fever after starting the treatment was recorded. […]

[2] = tested on: asexual malarial parasites; test: Recovery from coma in patients with severe/cerebral malaria, combined administration of CRDS and artesunate; assay type: in vivo; details: male patients in a coma, Glasgow Coma Score, CRDS 4 mg/kg i.v. infusion every 8 hours for 4 days, artesunate i.v. up to 600 mg, 13 patients per group, FIG. 2
Method: CRDS (molecular weight 80,000; sulfur content 14.5%) was used as a sulfated polysaccharide and artesunate was used as an artemisinin compound.
as §1, §2, §3
Artesunate (60 mg/vial) was intravenously administered to both CRDS and placebo groups at a dose of initially 120 mg, and then 60 mg every 12 hours up to a total dose of 600 mg. If possible, tablets containing 50 mg of artesunate were orally administered.
Coma was determined by Glasgow Coma Score.
For each of the CRDS group and the placebo group, 13 patients completed this protocol. The time required for each patient to recover from coma was recorded. Fisher's exact test was used to compare the number of patients who recovered from coma within 120 hours between both groups (CRDS group and placebo group).

For C[C@H]1[C@H](OC(=O)CCC(=O)O)O[C@@H]2O[C@@]3(C)CC[C@H]4[C@H](C)CC[C@@H]1[C@@]24OO3 [artesunate, dihydroartemisinin hemisuccinate], the “time required for all the patients to recover from fever” value [1] was 9 days and the “time required for all the patients to recover from coma” value [2] was 9 days.
